target: human IDO1 (Homo sapiens, UniProt P14902); assay: Assessment of human IDO-1 inhibitory activity in HEK cells (human IDO1/HEK293 cells, kynurenine read-out with Ehrlich reagent, absorbance 490 nm); format: cell-based; design: expressed in transfected cells; details: HEK Human IDO-1 cellular assay
Procedure, shortened: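 Kynurenine output from stably IDO1-transfected HEK293 cells (10,000/well, phenol red-free RPMI, 10% FBS) after 20 h compound exposure at 37 °C. The reaction was stopped with 0.2% TCA and heated 30 min at 50 °C, then the supernatant was mixed with Ehrlich reagent and read at 490 nm. IC50 was set against DMSO and a 500 nM reference standard as 0 and 100% inhibition.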

Sequence of human IDO1 (P14902 whole entry): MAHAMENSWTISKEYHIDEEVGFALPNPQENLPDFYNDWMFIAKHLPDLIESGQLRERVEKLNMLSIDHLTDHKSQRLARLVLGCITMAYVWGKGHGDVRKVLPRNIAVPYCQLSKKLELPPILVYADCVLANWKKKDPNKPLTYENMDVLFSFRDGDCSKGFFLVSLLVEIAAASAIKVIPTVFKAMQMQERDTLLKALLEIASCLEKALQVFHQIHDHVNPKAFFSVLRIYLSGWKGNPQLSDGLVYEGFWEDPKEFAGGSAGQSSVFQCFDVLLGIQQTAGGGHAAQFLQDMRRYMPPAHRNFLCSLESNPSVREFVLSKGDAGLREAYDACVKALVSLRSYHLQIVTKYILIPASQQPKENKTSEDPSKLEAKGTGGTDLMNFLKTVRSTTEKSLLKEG

SMILES | IC50 [nM]
CCOc1ccc(NC(=O)Nc2cc(C(CC)CC(=O)O)c(F)cc2N(CC(C)C)C2CCCCC2)cc1 (single isomer, unassigned) [Example 1108, 3-(4-(Cyclohexyl(isobutyl)amino)-5-(3-(4-ethoxyphenyl)ureido)-2-fluorophenyl)pentanoic acid] | < 5
CCOc1ncc(Nc2cc(C(C)(C)CC(=O)O)ccc2N(CC)C2CCOCC2)cn1 [Example 159, 3-(3-((2-Ethoxypyrimidin-5-yl)amino)-4-(ethyl(tetrahydro-2H-pyran-4-yl)amino)phenyl)-3-methylbutanoic acid] | < 50
CCN(c1ccc(C(CC(=O)O)c2ccccc2)cc1Nc1ccc(Cl)cc1)C1CCOCC1 (single isomer, unassigned) [Example 590, 3-(3-((4-chlorophenyl)amino)-4-(ethyl(tetrahydro-2H-pyran-4-yl)amino)phenyl)-3-phenylpropanoic acid] | < 50
CC[C@H](CC(=O)O)c1ccc(N2C[C@@H](C)O[C@@H](C)C2)c(NC(=O)Nc2ccc(C)cc2)c1 (single isomer, unassigned) [Example 760] | > 50
CCC(CC(=O)O)c1ccc(N2CCC[C@H]2C(C)(C)O)c(NC(=O)Nc2ccc(F)cc2)c1 (single isomer, unassigned) [Example 813] | > 50
COC(Cc1ccc(N(CC(C)C)C2CCCCC2)c(NC(=O)Nc2ccc(Cl)cc2F)c1)C(=O)O (centres unmarked) [Example 1012, 3-(3-(3-(4-Chloro-2-fluorophenyl)ureido)-4-(cyclohexyl(isobutyl)amino)phenyl)-2-methoxypropanoic acid] | < 50
COCC(CC(=O)O)c1ccc(N(CC(C)C)C2CCCCC2)c(NC(=O)Cc2ccccc2F)c1 (racemic) [Example 1230, (+/−)-3-(4-(Cyclohexyl(isobutyl)amino)-3-(2-(2-fluorophenyl)acetamido)phenyl)-4-methoxybutanoic acid] | < 50
CCC(CC(=O)O)c1ccc(N2CCC[C@H]2C(C)(C)O)c(Nc2cnc(OCC3CC3)nc2)c1 (single isomer, unassigned) [Example 822] | > 50
CC[C@@H](CC(=O)O)c1ccc(N(CC)C2CCOCC2)c(NC(=O)Nc2ccc(F)cc2)c1 (single isomer, unassigned) [Example 490] | < 50
CC[C@H](CC(=O)O)c1ccc(N(CC(C)(C)O)C2CCCCC2)c(Nc2ccc(Cl)cc2)c1 (single isomer, unassigned) [Example 242] | < 5
CCc1cnc(Nc2cc([C@@H](CC)CC(=O)O)ccc2N(CC(C)(C)O)C2CCCCC2)nc1 (single isomer, unassigned) [Example 230] | < 50
CC(C)CN(CC(C)C)c1ccc(C(CC(=O)O)CN(C)C)cc1NC(=O)Nc1cncnc1 (racemic) [Example 1001, (+/−)-3-(4-(Disobutylamino)-3-(3-(pyrimidin-5-yl)ureido)phenyl)-4-(dimethylamino)butanoic acid] | > 50
CC[C@@H](CC(=O)O)c1ccc(N(CC(C)C)CC(C)C)c(Nc2ccc3nc(C)sc3c2)c1 (single isomer, unassigned) [Example 9] | > 50
CC[C@H](CC(=O)O)c1ccc(N(CC(C)(C)O)C2CCCCC2)c(Nc2ccc(F)cc2)c1 (single isomer, unassigned) [Example 236] | < 50
CCN(c1ccc([C@@H](COC)CC(=O)O)cc1NC(=O)Nc1cc(C)on1)C1CCOCC1 (single isomer, unassigned) [Example 428] | > 50
CC[C@H](CC(=O)O)c1ccc(N2CCC[C@@H]2C(C)(C)O)c(NC(=O)Nc2ccc(C)cc2)c1 (single isomer, unassigned) [Example 774] | > 50
CCC(CC(=O)O)c1ccc(N(CC(C)C)C2CCCCC2)c(NC(=O)c2ccc(Oc3ccccc3)cc2)c1 (racemic) [Example 1074, 3-(4-(Cyclohexyl(isobutyl)amino)-3-(4-phenoxybenzamido)phenyl)pentanoic acid] | > 50
CC(C)CN(CC(C)C)c1ccc(C(CC(=O)O)CN(C)C)cc1NC(=O)Nc1ccc(Cl)cc1F (racemic) [Example 1000, (+/−)-3-(3-(3-(4-Chloro-2-fluorophenyl)ureido)-4-(diisobutylamino)phenyl)-4-(dimethylamino)butanoic acid] | > 50
CC[C@@H](CC(=O)O)c1ccc(N(CC)C2CCOCC2)c(Nc2cn3ccnc3cn2)c1 (single isomer, unassigned) [Example 483] | > 50

SMILES | IC50 [nM]
CC[C@H](CC(=O)O)c1ccc(N(CC(C)(C)O)C2CCOCC2)c(Nc2ccc(Cl)c(OCC(F)(F)F)c2)c1 (single isomer, unassigned) [Example 205] | < 50
CCOc1ncc(Nc2cc([C@H](CC)CC(=O)NS(C)(=O)=O)ccc2N(CC)C2CCOCC2)cn1 [Example 1078, 3-(3-((2-Ethoxypyrimidin-5-yl)amino)-4-(ethyl(tetrahydro-2H-pyran-4-yl)amino)phenyl)-N-(methylsulfonyl)pentanamide] | < 50
CCOc1ccc(NC(=O)Nc2cc([C@H](CC)CC(=O)O)ccc2N(CC(C)C)C2CCS(=O)(=O)CC2)cc1 (single isomer, unassigned) [Example 212] | > 50
CCC(CC(=O)O)c1ccc(N(CC(C)C)C2CCCCC2)c(Nc2ccc(C)cc2)c1 (single isomer, unassigned) [Example 304, 3-(4-(cyclohexyl(isobutyl)amino)-3-(p-tolylamino)phenyl)pentanoic acid] | < 5
COCC(CC(=O)O)c1cc(F)c(N(CC(C)C)CC(C)C)c(Nc2ccc3c(c2)OC(F)(F)O3)c1 (single isomer, unassigned) [Example 927, 3-(3-((2,2-difluorobenzo[d] [1,3]dioxol-5-yl)amino)-4-(diisobutylamino)-5-fluorophenyl)-4-methoxybutanoic acid.] | < 50
CCCN(c1ccc([C@@H](CC)CC(=O)O)cc1Nc1ccc2c(c1)OC(F)(F)O2)C1CCOCC1 (single isomer, unassigned) [Example 539] | < 5
COCC(CC(=O)O)c1cc(F)c(N(CC(C)C)C2CCCCC2)c(NC(=O)Nc2cc(C)on2)c1 (single isomer, unassigned) [Example 1158, 3-(4-(cyclohexyl(isobutyl)amino)-3-fluoro-5-(3-(5-methylisoxazol-3-yl)ureido)phenyl)-4-methoxybutanoic acid] | < 50
CCOc1ccc(CC(=O)Nc2cc(C(COC)CC(=O)O)cc(F)c2N(CC(C)C)CC(C)C)cc1 (single isomer, unassigned) [Example 1181, 3-(4-(Diisobutylamino)-3-(2-(4-ethoxyphenyl)acetamido)-5-fluorophenyl)-4-methoxybutanoic acid] | < 50
COCC(CC(=O)O)c1ccc(N(CC(C)C)CC(C)C)c(NC(=O)Nc2ccc(C)cc2)c1 (racemic) [Example 992, (+/−)-3-(4-(Diisobutylamino)-3-(3-(p-tolyl)ureido)phenyl)-4-methoxybutanoic acid] | < 50
CCOc1ccc(NC(=O)Nc2cc(C(COC)CC(=O)O)ccc2N(CC(C)C)C2CCCCC2)cc1 (single isomer, unassigned) [Example 1235, 3-(4-(Cyclohexyl(isobutyl)amino)-3-(3-(4-ethoxyphenyl)ureido)phenyl)-4-methoxybutanoic acid] | < 5
CCOc1ncc(Nc2cc(C(CC)CC(=O)O)ccc2N2CCOC[C@H]2C(C)C)cn1 (single isomer, unassigned) [Example 903] | < 50
CCOc1ccc(NC(=O)Nc2cc(C(COC)CC(=O)O)ccc2N(CC(C)C)C2CCOCC2)c(F)c1 (single isomer, unassigned) [Example 1215, 3-(3-(3-(4-Ethoxy-2-fluorophenyl)ureido)-4-(isobutyl(tetrahydro-2H-pyran-4-yl)amino)phenyl)-4-methoxybutanoic acid] | > 50
CCOc1ccc(NC(=O)Nc2cc(C(COC)CC(=O)O)ccc2N(CC(C)C)C2CCCCC2)c(F)c1 (single isomer, unassigned) [Example 1232, 3-(4-(Cyclohexyl(isobutyl)amino)-3-(3-(4-ethoxy-2-fluorophenyl)ureido)phenyl)-4-methoxybutanoic acid] | < 50
CCC(CC(=O)O)c1ccc(N(CC(C)C)C2CCCCC2)c(Nc2ccc(Cl)cc2)c1 (single isomer, unassigned) [Example 308, 3-(3-((4-chlorophenyl)amino)-4-(cyclohexyl (isobutyl)amino)phenyl) pentanoic acid] | < 5
CCC(CC(=O)O)c1ccc(N(CC(C)C)CC(C)(C)O)c(Nc2ccc(Cl)cc2)c1 (racemic) [Example 453, 3-(3-((4-chlorophenyl)amino)-4-((2-hydroxy-2-methyl-propyl)(isobutyl)amino)phenyl) pentanoic acid] | < 5
COCC(CC(=O)O)c1ccc(N(CC2CC2)C2CCOCC2)c(Nc2ccc(Cl)cc2)c1 (single isomer, unassigned) [Example 690, 3-(3-((4-chlorophenyl)amino)-4-((cyclopropylmethyl) (tetrahydro-2H-pyran-4-yl)amino)phenyl)-4-methoxybutanoic acid] | > 50
CCC(CC(=O)O)c1ccc(N(CC(C)C)C2CCCCC2)c(Nc2ccc(C#N)cc2)c1 (single isomer, unassigned) [Example 314, 3-(3-((4-cyanophenyl)amino)-4-(cyclohexyl (isobutyl)amino)phenyl) pentanoic acid] | < 5
CCC(CC(=O)O)c1cc(NC(=O)Nc2ccc3c(c2)OCO3)c(N(CC(C)C)CC(C)C)cc1F (single isomer, unassigned) [Example 1135, 3-(5-(3-(Benzo[d][1,3]dioxol-5-yl)ureido)-4-(diisobutylamino)-2-fluorophenyl)pentanoic acid] | < 5
COCC(CC(=O)O)c1ccc(N(CC2CC2)C2CCOCC2)c(NC(=O)Nc2ccc(Cl)cc2F)c1 (single isomer, unassigned) [Example 678, 3-(3-(3-(4-Chloro-2-fluorophenyl)ureido)-4-((cyclopropylmethyl)(tetrahydro-2H-pyran-4-yl)amino)phenyl)-4-methoxybutanoic acid] | > 50

Source: patent publication US9790169B2, “IDO inhibitors” (BRISTOL-MYERS SQUIBB COMPANY, priority 2015, dated 2017)
